Columns and labels:
[1] = system: Tyrosine-protein kinase ABL1 (Homo sapiens), P00519 [E255K]; settings: Compound concentration 1000.0 nM
[2] = system: Tyrosine-protein kinase ABL1 (Homo sapiens), P00519 [F317L]; settings: Compound concentration 1000.0 nM
[3] = system: Tyrosine-protein kinase ABL1 (Homo sapiens), P00519 [F317L]; settings: Compound concentration 1000.0 nM; remark: listed apart in the source
[4] = system: Tyrosine-protein kinase ABL1 (Homo sapiens), P00519 [T315I]; settings: Compound concentration 1000.0 nM
[5] = biological target: Dual specificity mitogen-activated protein kinase kinase 7 (Homo sapiens) (UniProt O14733); settings: Compound concentration 1000.0 nM
Dual specificity mitogen-activated protein kinase kinase 7 (Homo sapiens), sequence (O14733 whole entry): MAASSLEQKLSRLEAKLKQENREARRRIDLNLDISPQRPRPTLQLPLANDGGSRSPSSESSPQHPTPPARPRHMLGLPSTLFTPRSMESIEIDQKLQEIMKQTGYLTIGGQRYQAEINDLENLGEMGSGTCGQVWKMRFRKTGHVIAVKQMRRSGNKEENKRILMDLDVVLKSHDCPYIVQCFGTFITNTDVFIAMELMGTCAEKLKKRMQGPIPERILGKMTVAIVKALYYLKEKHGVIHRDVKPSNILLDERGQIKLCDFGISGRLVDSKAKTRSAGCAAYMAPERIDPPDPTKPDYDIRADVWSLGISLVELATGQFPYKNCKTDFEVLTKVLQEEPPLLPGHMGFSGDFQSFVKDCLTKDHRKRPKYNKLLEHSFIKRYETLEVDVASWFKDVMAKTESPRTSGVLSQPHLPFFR

[6] = biological target: 5-hydroxytryptamine receptor 6 (Homo sapiens) (UniProt P50406); settings: Compound concentration 10.0 uM
[7] = biological target: Delta-type opioid receptor (Homo sapiens) (UniProt P41143); settings: Compound concentration 10.0 uM
Delta-type opioid receptor (Homo sapiens), sequence (P41143 whole entry): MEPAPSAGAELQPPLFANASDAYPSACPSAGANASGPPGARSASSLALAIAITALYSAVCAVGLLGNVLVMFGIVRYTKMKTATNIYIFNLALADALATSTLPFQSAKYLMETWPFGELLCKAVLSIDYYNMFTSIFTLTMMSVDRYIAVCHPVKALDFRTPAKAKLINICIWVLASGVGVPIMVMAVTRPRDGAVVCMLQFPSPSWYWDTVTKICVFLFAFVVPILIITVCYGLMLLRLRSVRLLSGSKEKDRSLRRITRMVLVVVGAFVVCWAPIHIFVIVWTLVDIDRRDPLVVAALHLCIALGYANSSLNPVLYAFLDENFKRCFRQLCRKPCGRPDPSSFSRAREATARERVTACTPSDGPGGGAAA

[8] = biological target: D(2) dopamine receptor (Homo sapiens, UniProt P14416); assay: GPCRScan assay: inhibition of D2; design: radioligand conc. used [nm] 0.4 – 1.0, parental cells stable fibroblast
D(2) dopamine receptor, sequence (P14416 whole entry): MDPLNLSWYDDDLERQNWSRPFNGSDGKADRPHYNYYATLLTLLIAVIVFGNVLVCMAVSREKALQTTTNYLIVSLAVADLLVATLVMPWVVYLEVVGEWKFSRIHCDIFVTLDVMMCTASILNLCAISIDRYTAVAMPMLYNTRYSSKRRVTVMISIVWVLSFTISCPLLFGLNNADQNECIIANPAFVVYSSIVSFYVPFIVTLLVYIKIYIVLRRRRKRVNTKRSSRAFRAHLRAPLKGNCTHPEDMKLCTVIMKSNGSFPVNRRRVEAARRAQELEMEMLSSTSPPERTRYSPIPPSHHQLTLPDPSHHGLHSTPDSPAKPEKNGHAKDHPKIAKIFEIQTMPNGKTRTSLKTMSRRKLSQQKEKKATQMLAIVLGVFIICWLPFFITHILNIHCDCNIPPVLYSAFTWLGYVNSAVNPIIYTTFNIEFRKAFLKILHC

[9] = biological target: T1, Sodium-dependent dopamine transporter (Homo sapiens, UniProt Q01959); assay: GPCRScan assay: inhibition of DAT; design: radioligand conc. used [nm] 3.6 – 16.0, parental cells stable HEK
T1 sequence (Q01959 whole entry): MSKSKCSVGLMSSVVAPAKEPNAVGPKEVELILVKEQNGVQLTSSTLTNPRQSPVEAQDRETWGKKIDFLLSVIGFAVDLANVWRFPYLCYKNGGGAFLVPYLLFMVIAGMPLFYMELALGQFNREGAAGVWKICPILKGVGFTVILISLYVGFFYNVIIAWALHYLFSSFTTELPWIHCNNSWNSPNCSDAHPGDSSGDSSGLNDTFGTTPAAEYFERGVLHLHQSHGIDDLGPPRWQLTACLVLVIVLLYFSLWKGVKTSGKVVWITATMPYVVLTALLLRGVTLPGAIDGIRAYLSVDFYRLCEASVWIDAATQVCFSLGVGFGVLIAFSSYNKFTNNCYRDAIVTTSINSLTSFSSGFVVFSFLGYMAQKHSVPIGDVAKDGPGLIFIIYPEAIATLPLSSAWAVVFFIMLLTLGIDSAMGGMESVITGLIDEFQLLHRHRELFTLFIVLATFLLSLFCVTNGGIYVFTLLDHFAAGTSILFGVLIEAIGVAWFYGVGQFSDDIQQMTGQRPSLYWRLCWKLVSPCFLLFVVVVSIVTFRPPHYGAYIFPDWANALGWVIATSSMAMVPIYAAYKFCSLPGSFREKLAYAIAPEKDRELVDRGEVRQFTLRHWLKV

[10] = biological target: Alpha-1D adrenergic receptor (Homo sapiens, UniProt P25100); assay: GPCRScan assay: inhibition of Alpha1D; design: radioligand conc. used [nm] 0.3 – 1.0, parental cells stable
Alpha-1D adrenergic receptor, sequence (P25100 whole entry): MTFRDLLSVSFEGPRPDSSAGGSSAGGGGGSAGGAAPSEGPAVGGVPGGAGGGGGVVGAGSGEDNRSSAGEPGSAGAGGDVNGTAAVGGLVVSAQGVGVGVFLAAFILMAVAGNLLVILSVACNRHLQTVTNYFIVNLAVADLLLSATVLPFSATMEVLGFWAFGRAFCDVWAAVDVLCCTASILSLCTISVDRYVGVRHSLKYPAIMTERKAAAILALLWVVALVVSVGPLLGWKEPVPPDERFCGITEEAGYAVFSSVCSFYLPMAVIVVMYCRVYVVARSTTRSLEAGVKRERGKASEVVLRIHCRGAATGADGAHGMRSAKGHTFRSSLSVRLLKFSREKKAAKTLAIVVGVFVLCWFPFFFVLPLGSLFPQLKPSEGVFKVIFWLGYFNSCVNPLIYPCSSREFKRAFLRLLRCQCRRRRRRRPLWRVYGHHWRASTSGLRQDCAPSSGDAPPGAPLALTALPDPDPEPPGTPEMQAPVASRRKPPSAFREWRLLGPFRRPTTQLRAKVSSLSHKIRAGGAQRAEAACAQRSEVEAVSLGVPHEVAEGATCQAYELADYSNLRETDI

[11] = biological target: T1, Sodium-dependent dopamine transporter; assay: […] binding assay (SLC6A3)
[12] = biological target: Inhibitor of nuclear factor kappa-B kinase subunit epsilon (Homo sapiens) (UniProt Q14164); settings: Compound concentration 1000.0 nM
Inhibitor of nuclear factor kappa-B kinase subunit epsilon (Homo sapiens), sequence (Q14164 whole entry): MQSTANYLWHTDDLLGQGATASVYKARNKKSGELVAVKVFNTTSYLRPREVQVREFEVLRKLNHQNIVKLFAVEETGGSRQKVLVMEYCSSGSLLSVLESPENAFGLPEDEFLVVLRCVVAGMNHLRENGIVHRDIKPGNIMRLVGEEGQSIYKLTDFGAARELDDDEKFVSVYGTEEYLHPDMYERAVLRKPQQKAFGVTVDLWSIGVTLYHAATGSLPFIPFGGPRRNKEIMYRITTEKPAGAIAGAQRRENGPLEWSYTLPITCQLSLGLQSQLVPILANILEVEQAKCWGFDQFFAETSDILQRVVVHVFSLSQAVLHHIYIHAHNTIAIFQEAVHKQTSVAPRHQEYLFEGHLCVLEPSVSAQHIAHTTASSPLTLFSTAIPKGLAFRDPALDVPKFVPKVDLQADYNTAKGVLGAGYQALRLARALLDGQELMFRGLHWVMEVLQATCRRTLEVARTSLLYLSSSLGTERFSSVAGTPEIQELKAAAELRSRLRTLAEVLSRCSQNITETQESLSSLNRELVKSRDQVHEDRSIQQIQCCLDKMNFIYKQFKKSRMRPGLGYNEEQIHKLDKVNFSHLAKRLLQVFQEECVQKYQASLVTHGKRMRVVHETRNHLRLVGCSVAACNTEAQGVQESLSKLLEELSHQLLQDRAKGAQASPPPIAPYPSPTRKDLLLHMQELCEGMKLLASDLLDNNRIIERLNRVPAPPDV

[13] = biological target: MAP kinase-activated protein kinase 5 (Homo sapiens) (UniProt Q8IW41); settings: Compound concentration 1000.0 nM
MAP kinase-activated protein kinase 5 (Homo sapiens), sequence (Q8IW41 whole entry): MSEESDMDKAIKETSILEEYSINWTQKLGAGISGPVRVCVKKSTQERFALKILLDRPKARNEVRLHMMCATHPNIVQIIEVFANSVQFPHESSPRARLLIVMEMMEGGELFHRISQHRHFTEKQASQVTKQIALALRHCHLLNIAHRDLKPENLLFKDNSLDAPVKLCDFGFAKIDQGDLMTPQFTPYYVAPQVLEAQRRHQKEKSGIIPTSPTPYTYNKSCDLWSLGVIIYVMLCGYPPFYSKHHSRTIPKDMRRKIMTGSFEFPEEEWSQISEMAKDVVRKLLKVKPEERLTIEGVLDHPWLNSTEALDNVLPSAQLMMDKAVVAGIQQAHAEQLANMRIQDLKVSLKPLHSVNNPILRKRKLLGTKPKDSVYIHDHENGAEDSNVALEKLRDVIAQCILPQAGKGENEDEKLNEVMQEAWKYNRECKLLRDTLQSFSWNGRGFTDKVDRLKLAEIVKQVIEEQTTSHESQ

[14] = biological target: Hepatocyte growth factor receptor (Homo sapiens) (UniProt P08581); settings: Compound concentration 1000.0 nM
[15] = system: Hepatocyte growth factor receptor (Homo sapiens), P08581 [M1250T]; settings: Compound concentration 1000.0 nM
[16] = biological target: cAMP-dependent protein kinase catalytic subunit alpha (Homo sapiens) (UniProt P17612); settings: Compound concentration 1000.0 nM
[17] = biological target: cAMP-dependent protein kinase catalytic subunit beta (Homo sapiens) (UniProt P22694); settings: Compound concentration 1000.0 nM
[18] = biological target: 5-hydroxytryptamine receptor 1A (Homo sapiens) (UniProt P08908); settings: Compound concentration 10.0 uM
5-hydroxytryptamine receptor 1A (Homo sapiens), sequence (P08908 whole entry): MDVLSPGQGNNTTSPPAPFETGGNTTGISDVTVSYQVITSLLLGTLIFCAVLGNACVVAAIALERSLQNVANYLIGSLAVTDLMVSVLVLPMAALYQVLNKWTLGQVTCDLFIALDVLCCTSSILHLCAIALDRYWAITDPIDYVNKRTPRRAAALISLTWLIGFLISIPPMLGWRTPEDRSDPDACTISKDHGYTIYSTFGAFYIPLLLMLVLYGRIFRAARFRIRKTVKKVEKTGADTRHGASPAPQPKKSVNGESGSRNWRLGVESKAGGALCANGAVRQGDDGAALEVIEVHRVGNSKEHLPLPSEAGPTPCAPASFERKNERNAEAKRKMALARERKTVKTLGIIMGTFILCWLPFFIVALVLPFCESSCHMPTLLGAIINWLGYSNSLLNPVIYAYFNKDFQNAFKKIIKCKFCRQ

[19] = biological target: T1, Sodium-dependent dopamine transporter; settings: Compound concentration 10.0 uM
[20] = biological target: Kappa-type opioid receptor (Homo sapiens) (UniProt P41145); settings: Compound concentration 10.0 uM
Kappa-type opioid receptor (Homo sapiens), sequence (P41145 whole entry): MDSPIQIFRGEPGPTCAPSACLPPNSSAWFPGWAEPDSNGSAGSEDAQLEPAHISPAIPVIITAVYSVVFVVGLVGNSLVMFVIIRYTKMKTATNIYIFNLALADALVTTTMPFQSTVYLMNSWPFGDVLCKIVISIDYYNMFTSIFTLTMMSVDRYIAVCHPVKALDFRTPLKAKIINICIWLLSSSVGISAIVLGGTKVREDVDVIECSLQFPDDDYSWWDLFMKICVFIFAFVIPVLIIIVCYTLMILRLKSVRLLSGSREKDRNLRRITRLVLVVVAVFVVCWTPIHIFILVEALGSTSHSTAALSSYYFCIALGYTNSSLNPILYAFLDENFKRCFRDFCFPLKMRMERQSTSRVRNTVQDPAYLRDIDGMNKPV

[21] = biological target: Histamine H3 receptor (Homo sapiens) (UniProt Q9Y5N1); settings: Compound concentration 10.0 uM
[22] = biological target: Alpha-2A adrenergic receptor (Homo sapiens) (UniProt P08913); settings: Compound concentration 10.0 uM
Alpha-2A adrenergic receptor (Homo sapiens), sequence (P08913 whole entry): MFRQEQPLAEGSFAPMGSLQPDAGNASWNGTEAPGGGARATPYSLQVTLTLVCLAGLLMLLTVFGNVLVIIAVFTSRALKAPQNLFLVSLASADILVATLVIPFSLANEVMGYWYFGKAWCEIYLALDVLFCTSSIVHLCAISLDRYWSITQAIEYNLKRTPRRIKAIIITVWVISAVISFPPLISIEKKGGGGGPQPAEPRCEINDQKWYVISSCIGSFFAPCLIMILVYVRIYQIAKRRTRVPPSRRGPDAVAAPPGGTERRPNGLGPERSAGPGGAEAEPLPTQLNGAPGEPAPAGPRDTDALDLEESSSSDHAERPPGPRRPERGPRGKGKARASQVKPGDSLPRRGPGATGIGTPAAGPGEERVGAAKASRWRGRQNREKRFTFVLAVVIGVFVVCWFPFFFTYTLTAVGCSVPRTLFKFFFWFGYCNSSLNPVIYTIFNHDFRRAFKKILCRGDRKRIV

[23] = biological target: Alpha-1D adrenergic receptor (Homo sapiens) (UniProt P25100); settings: Compound concentration 10.0 uM
Alpha-1D adrenergic receptor (Homo sapiens), sequence (P25100 whole entry): as the sequence (P25100 whole entry) above

Compound: CN([C@@H]1CCc2c(CC(=O)O)c3cc(S(C)(=O)=O)ccc3n2C1)S(=O)(=O)c1ccc(F)cc1
- residual activity [1]: 100%
- residual activity [2]: 90%
- residual activity [3]: 92%
- residual activity [4]: 88%
- residual activity [5]: 100%
- inhibition [6]: -5.39%
- inhibition [7]: 20%

Compound: CN([C@@H]1CCc2c(CC(=O)O)c3ccccc3n2C1)S(=O)(=O)c1ccc(F)cc1 [MK-7246]
- Ki [8]: 3.75 µM
- Ki ([9]; read-out: Ki): 0.283 µM
- Ki ([9]; read-out: pKi (converted)): 0.316 µM
- Ki [10]: 10 µM
- Ki [11]: 0.373 µM (not active)
- residual activity [12]: 84%
- residual activity [13]: 94%
- residual activity [14]: 100%
- residual activity [15]: 100%
- residual activity [16]: 100%
- residual activity [17]: 100%
- inhibition [18]: 15.5%
- inhibition [19]: 77.1%
- inhibition [20]: 4.56%
- inhibition [21]: 4.03%
- inhibition [22]: -3.89%
- inhibition [23]: 50%

Source: ChEMBL document CHEMBL4507290 (2021)
